pIC50: −log10 of the molar value.
What follows are compounds tested against BTK (Homo sapiens (Human), UniProt Q06187) (assay: Z'-LYTE kinase inhibition assay against BTK). Conditions: compound at 100 nM; ATP concentration at Km.
Format: biochemical
Description: Inhibitory activities of compounds against BTK, EGFR T790M, EGFR L858R, and EGFR L858R/T790M were measured using Z′-LYTE® Method from Life Technologies as briefly described in the following.
Test Compounds are screened in 1% DMSO (final) in the well. For 10 point titrations, 3-fold serial dilutions are conducted from the starting concentration. All ATP Solutions are diluted to a 4× working concentration in Kinase Buffer (50 mM HEPES pH 7.5, 0.01% BRIJ-35, 10 mM MgCl2, 1 mM EGTA). Peptide/Kinase Mixtures are diluted to a 2× working concentration in the appropriate Kinase Buffers as described below. • (i) Peptide/Kinase Mixtures for measurement of EGFR (ErbB1) L858R: • The 2×EGFR (ErbB1) L858R/Tyr 04 mixture is prepared in 50 mM HEPES pH 7.5, 0.01% BRIJ-35, 10 mM MgCl2, 4 mM MnCl2. 1 mM EGTA, 2 mM DTT. The final 10 μL Kinase Reaction consists of 0.2-1.68 ng EGFR (ErbB1) L858R and 2 μM Tyr 04 in 50 mM HEPES pH 7.5, 0.01% BRIJ-35, 10 mM MgCl2, 2 mM MnCl2, 1 mM EGTA, 1 mM DTT. After the 1 hour Kinase Reaction incubation, 5 μL of a 1:64 dilution of Development Reagent B is added. • (ii) Peptide/Kinase Mixtures for measurement of EGFR (ErbB1) T790M: The 2×EGFR (ErbB1) T790M/Tyr 04 mixture is prepared in 50 mM HEPES pH 6.5, 0.01% BRIJ-35, 10 mM MgCl2, 1 mM EGTA, 0.02% NaN3. The final 10 μL Kinase Reaction consists of 3.9-30.2 ng EGFR (ErbB1) T790M and 2 μM Tyr 04 in 50 mM HEPES pH 7.0, 0.01% BRIJ-35, 10 mM MgCl2, 1 mM EGTA, 0.01% NaN3. After the 1 hour Kinase Reaction incubation, 5 μL of a 1:64 dilution of Development Reagent B is added. • (iii) Peptide/Kinase Mixtures for measurement of EGFR (ErbB1) L858R/T790M: The 2×EGFR (ErbB1) T790M L858R/Tyr 04 mixture is prepared in 50 mM HEPES pH 6.5, 0.01% BRIJ-35, 10 mM MgCl2, 1 mM EGTA, 0.02% NaN3. The final 10 μL Kinase Reaction consists of 0.38-4.22 ng EGFR (ErbB1) T790M L858R and 2 μM Tyr 04 in 50 mM HEPES pH 7.0, 0.01% BRIJ-35, 10 mM MgCl2, 1 mM EGTA, 0.01% NaN3. After the 1 hour Kinase Reaction incubation, 5 μL of a 1:64 dilution of Development Reagent B is added. • (iv) Peptide/Kinase Mixtures for measurement of BTK: The 2×BTK/Tyr 01 mixture is prepared in 50 mM HEPES pH 7.5, 0.010/BRIJ-35, 10 mM MgCl2, 1 mM EGTA. The final 10 μL Kinase Reaction consists of 1.04-10.4 ng BTK and 2 μM Tyr 01 in 50 mM HEPES pH 7.5, 0.01% BRIJ-35, 10 mM MgCl2, 1 mM EGTA. After the 1 hour Kinase Reaction incubation, 5 μL of a 1:256 dilution of Development Reagent B is added.
Reaction starts by 30-second shaking of mixture consisting of 2.5 μL 4× test compound, 5 μL 2× kinase reaction mixture and 2.5 μL 4×ATP Solution on Bar-coded Corning, low volume NBS, black 384-well plate (Corning Cat. #3676). Then the mixture is incubated for 60-minute at room temperature for the kinase reaction, followed by addition of 5 μL of a 1:1024 dilution of development reagent A and 30-second plate shake. The mixture is then incubated for another 60-minute at room temperature for development reaction. Finally fluorescence is read by plate reader.
The Z′-LYTE assay was carried out with ATP concentration at Km. The scale utilized in Tables 2-6 is as follows: ++ more than 50% inhibition and + less than 50% inhibition.
To determine IC50 of a compound against a kinase, a series of concentrations of the compound were tested for the inhibition. IC50 was calculated by plotting the concentration of compound vs the percentage of inhibition in treated wells using GraphPad Prism 5. […] The scale utilized in Table 7 is as follows: ++ less than 100 nM and + greater than 100 nM.

Chain of BTK (Q06187 whole entry): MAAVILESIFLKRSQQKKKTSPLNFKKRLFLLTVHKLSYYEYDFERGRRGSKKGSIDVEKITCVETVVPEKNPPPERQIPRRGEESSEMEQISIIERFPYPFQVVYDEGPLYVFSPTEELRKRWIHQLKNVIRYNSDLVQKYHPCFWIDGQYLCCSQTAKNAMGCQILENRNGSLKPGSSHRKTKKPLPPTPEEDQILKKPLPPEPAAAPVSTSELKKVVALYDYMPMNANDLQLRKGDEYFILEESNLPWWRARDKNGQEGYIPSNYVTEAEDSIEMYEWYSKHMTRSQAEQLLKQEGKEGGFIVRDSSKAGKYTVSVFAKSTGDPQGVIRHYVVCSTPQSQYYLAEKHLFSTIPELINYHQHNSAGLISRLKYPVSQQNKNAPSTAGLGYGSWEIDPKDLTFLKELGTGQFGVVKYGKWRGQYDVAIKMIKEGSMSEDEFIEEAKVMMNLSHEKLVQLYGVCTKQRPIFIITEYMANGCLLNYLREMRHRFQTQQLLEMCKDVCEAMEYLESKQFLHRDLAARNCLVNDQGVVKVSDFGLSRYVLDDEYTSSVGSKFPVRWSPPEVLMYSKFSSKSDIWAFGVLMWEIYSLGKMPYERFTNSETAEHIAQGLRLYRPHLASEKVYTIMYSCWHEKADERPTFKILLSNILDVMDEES

inhibition at 0.1 µM [%] | Structure (SMILES)
< 50 | C=CC(=O)N1CCCC(c2cc(-c3ccc(Oc4ccccc4)cc3)cc3c(N)ncnc23)C1 (stereo not drawn) [C030, 1-(3-(4-amino-6-(4-phenoxyphenyl)quinazolin-8-yl)piperidin-1-yl)prop-2-en-1-one]
< 50 | C=CC(=O)N1CCCC(c2cc(-c3cccnc3)cc3cncnc23)C1 (stereo not drawn) [C031, 1-(3-(6-(pyridin-3-yl)quinazolin-8-yl)piperidin-1-yl)prop-2-en-1-one]
< 50 | C=CC(=O)N1CCC(n2c(-c3ccccc3F)nc3cncnc32)C1 (stereo not drawn) [C032, 1-(3-(8-(2-fluorophenyl)-9H-purin-9-yl)pyrrolidin-1-yl)prop-2-en-1-one]
< 50 | C=CC(=O)N1CCC(n2c(-c3ccccc3Cl)nc3cncnc32)C1 (stereo not drawn) [C033, 1-(3-(8-(2-chlorophenyl)-9H-purin-9-yl)pyrrolidin-1-yl)prop-2-en-1-one]
< 50 | C=CC(=O)N1CCCC(c2cc(-c3ccccc3)cc3c(N)ncnc23)C1 (stereo not drawn) [C034, 1-(3-(4-amino-6-phenylquinazolin-8-yl)piperidin-1-yl)prop-2-en-1-one]
< 50 | C=CC(=O)Nc1cccc(-c2cc(-c3ccc(C(=O)Nc4cc(C)ccn4)cc3)cc3cnc(N)nc23)c1 [C036, 4-(8-(3-acrylamidophenyl)-2-aminoquinazolin-6-yl)-N-(4-methylpyridin-2-yl)benzamide]
< 50 | C=CC(=O)N1CCCC(c2ccc(-c3ccc(C(=O)Nc4ccccn4)cc3)c3cncnc23)C1 (stereo not drawn) [C037, 4-(8-(1-acryloylpiperidin-3-yl)quinazolin-5-yl)-N-(pyridin-2-yl)benzamide]
> 50 | C=CC(=O)Nc1cccc(-c2cc(-c3ccc(C)nc3)cc3cnc(N)nc23)c1 [C038, N-(3-(2-amino-6-(6-methylpyridin-3-yl)quinazolin-8-yl)phenyl)acrylamide]
< 50 | C=CC(=O)Nc1cccc(-c2ccc(-c3ccc(C(=O)Nc4ccccn4)cc3)c3cncnc23)c1 [C039, 4-(8-(3-acrylamidophenyl)quinazolin-5-yl)-N-(pyridin-2-yl)benzamide]
< 50 | C=CC(=O)Nc1cccc(-c2cc(-c3ccc(C(=O)Nc4ccccn4)cc3)cc3cnc(N)nc23)c1 [C040, 4-(8-(3-acrylamidophenyl)-2-aminoquinazolin-6-yl)-N-(pyridin-2-yl)benzamide]
> 50 | C=CC(=O)Nc1cccc(-c2cc(-c3ccc(C(=O)Nc4cc(C)ccn4)cc3)cc3cncnc23)c1 [C041, 4-(8-(3-acrylamidophenyl)quinazolin-6-yl)-N-(4-methylpyridin-2-yl)benzamide]
< 50 | C=CC(=O)N1CCC(c2cc(-c3cccnc3)cc3cncnc23)C1 (stereo not drawn) [C043, 1-(3-(6-(pyridin-3-yl)quinazolin-8-yl)pyrrolidin-1-yl)prop-2-en-1-one]
< 50 | C=CC(=O)Nc1cccc(-c2cc(-c3ccc(C(=O)Nc4ccccn4)cc3)n3cnccc23)c1 [C044, 4-(5-(3-acrylamidophenyl)pyrrolo[1,2-c]pyrimidin-7-yl)-N-(pyridin-2-yl)benzamide]
< 50 | C=CC(=O)N1CCCC(c2cc(-c3cccnc3)cc3cnc(N)nc23)C1 (stereo not drawn) [C045, 1-(3-(2-amino-6-(pyridin-3-yl)quinazolin-8-yl)piperidin-1-yl)prop-2-en-1-one]
< 50 | C=CC(=O)N1CCC(c2cc(-c3ccc(C(=O)Nc4ccccn4)cc3)n3cnccc23)C1 (stereo not drawn) [C046, 4-(5-(1-acryloylpyrrolidin-3-yl)pyrrolo[1,2-c]pyrimidin-7-yl)-N-(pyridin-2-yl)benzamide]
> 50 | C=CC(=O)N1CCC(c2cc(-c3ccccc3)cc3cncnc23)C1 (stereo not drawn) [C047, 1-(3-(6-phenylquinazolin-8-yl)pyrrolidin-1-yl)prop-2-en-1-one]
> 50 | C=CC(=O)N1CCC(c2cc(-c3ccc(Oc4ccccc4)cc3)cc3cncnc23)C1 (stereo not drawn) [C048, 1-(3-(6-(4-phenoxyphenyl)quinazolin-8-yl)pyrrolidin-1-yl)prop-2-en-1-one]
< 50 | C=CC(=O)N1CCC(c2ccc(-c3ccc(C(=O)Nc4ccccn4)cc3)c3cncnc23)C1 (stereo not drawn) [C049, 4-(8-(1-acryloylpyrrolidin-3-yl)quinazolin-5-yl)-N-(pyridin-2-yl)benzamide]
> 50 | C=CC(=O)Nc1cccc(-c2cc(-c3ccc(C(=O)Nc4ccccc4)nc3)cc3cncnc23)c1 [C050, 5-(8-(3-acrylamidophenyl)quinazolin-6-yl)-N-phenylpicolinamide]
> 50 | C=CC(=O)Nc1cccc(-c2cc(-c3ccc(C(=O)Nc4ccccc4)cc3)cc3cncnc23)c1 [C053, 4-(8-(3-acrylamidophenyl)quinazolin-6-yl)-N-phenylbenzamide]
< 50 | C=CC(=O)N1CCC(c2cc(-c3ccc(C(=O)Nc4ccccc4)cc3)n3cnccc23)C1 (stereo not drawn) [C054, 4-(5-(1-acryloylpyrrolidin-3-yl)pyrrolo[1,2-c]pyrimidin-7-yl)-N-phenylbenzamide]
> 50 | C=CC(=O)Nc1cccc(-c2cc(-c3cncc(C(F)(F)F)c3)cc3cncnc23)c1 [C055, N-(3-(6-(5-(trifluoromethyl)pyridin-3-yl)quinazolin-8-yl)phenyl)acrylamide]
< 50 | C=CC(=O)N1CCC(c2ccc(-c3ccc(C(=O)Nc4ccccn4)cc3)c3c(N)ncnc23)C1 (stereo not drawn) [C056, 4-(8-(1-acryloylpyrrolidin-3-yl)-4-amino-quinazolin-5-yl)-(N-pyridin-2-yl)benzamide]
< 50 | C=CC(=O)Nc1cccc(-c2cc(-c3ccc(Oc4ccccc4)cc3)n3cnccc23)c1 [C057, N-(3-(7-(4-phenoxyphenyl)pyrrolo[1,2-c]pyrimidin-5-yl)phenyl)acrylamide]
< 50 | C=CC(=O)N1CCC(c2cc(-c3ccc(C(=O)Nc4cccc(C(F)(F)F)c4)cc3)n3cnccc23)C1 (stereo not drawn) [C058, 4-(5-(1-acryloylpyrrolidin-3-yl)pyrrolo[1,2-c]pyrimidin-7-yl)-N-(3-(trifluoro-methyl)phenyl)benzamide]
< 50 | C=CC(=O)Nc1cccc(-c2cc(-c3ccc(C(=O)Nc4ccccc4)nc3)cc3cnc(N)nc23)c1 [C059, 5-(8-(3-acrylamidophenyl)-2-aminoquinazolin-6-yl)-N-phenylpicolinamide]
< 50 | C=CC(=O)N1CCC(c2cc(-c3ccc(C(=O)Nc4ccccc4)nc3)cc3cncnc23)C1 (stereo not drawn) [C060, 5-(8-(1-acryloylpyrrolidin-3-yl)quinazolin-6-yl)-N-phenylpicolinamide]
> 50 | C=CC(=O)Nc1cccc(-c2cc(-c3ccc(Oc4ccccc4)nc3)cc3cncnc23)c1 [C061, N-(3-(6-(6-phenoxypyridin-3-yl)quinazolin-8-yl)phenyl)acrylamide]
< 50 | C=CC(=O)N1CCC(c2cc(-c3ccc(C(=O)Nc4ccccc4)cc3)cc3cncnc23)C1 (stereo not drawn) [C062, 4-(8-(1-acryloylpyrrolidin-3-yl)quinazolin-6-yl)-N-phenylbenzamide]

Same assay, conditions: series of concentrations; GraphPad Prism 5

pIC50 | Structure (SMILES)
> 7.00 | C=CC(=O)Nc1cccc(-c2cc(-c3ccc(C)nc3)cc3cnc(N)nc23)c1 [C038, N-(3-(2-amino-6-(6-methylpyridin-3-yl)quinazolin-8-yl)phenyl)acrylamide]
> 7.00 | C=CC(=O)N1CCC(c2cc(-c3ccc(Oc4ccccc4)cc3)cc3cncnc23)C1 (stereo not drawn) [C048, 1-(3-(6-(4-phenoxyphenyl)quinazolin-8-yl)pyrrolidin-1-yl)prop-2-en-1-one]
> 7.00 | C=CC(=O)Nc1cccc(-c2cc(-c3ccc(C(=O)Nc4ccccc4)cc3)cc3cncnc23)c1 [C053, 4-(8-(3-acrylamidophenyl)quinazolin-6-yl)-N-phenylbenzamide]
> 7.00 | C=CC(=O)Nc1cccc(-c2cc(-c3ccc(Oc4ccccc4)nc3)cc3cncnc23)c1 [C061, N-(3-(6-(6-phenoxypyridin-3-yl)quinazolin-8-yl)phenyl)acrylamide]

From patent US10544106B2, “Certain chemical entities, compositions, and methods” (NeuPharma, Inc., priority 2016, dated 2020)
